Where two headings read alike, the source gives them in different places.
Tests used:
α4β2* nicotinic receptor [1] = target: T1, α4β2* nicotinic receptor (Rattus norvegicus, UniProt P09483+P12390); test: Nicotine-evoked 86Rb+ efflux assay, thalamic synaptosomes; format: biochemical; design: from tissue; conditions: read-out: Inhibition of Nicotine-Evoked 86Rb+ Efflux (IC50) α4β2*
[2] = target: T2, dopamine transporter (DAT) (Rattus norvegicus, UniProt P23977); test: [3H]Dopamine uptake assay, striatal synaptosomes; format: biochemical
T2 construct: Striata were homogenized in 20 ml of ice-cold sucrose solution; from tissue; host or cells: striatal synaptosomes
T2 sequence (P23977 whole entry): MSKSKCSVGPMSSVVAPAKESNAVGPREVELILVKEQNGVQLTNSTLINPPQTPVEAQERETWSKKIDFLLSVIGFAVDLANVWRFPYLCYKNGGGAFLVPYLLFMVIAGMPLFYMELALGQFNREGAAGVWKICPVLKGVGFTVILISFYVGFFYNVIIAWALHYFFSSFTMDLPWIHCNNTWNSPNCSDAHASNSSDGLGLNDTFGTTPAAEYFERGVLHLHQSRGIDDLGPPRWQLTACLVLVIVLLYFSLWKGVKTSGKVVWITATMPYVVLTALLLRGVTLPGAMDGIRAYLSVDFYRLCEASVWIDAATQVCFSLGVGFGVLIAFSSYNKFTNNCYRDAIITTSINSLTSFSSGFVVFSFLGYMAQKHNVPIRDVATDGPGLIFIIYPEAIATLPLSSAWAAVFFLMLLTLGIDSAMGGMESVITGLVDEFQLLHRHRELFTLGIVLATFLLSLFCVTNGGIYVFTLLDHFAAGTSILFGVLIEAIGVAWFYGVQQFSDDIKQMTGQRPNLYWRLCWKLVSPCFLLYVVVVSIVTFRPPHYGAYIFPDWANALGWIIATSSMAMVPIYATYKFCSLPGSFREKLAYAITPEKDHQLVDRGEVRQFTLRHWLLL

[3] = target: T3, serotonin transporter (SERT) (Rattus norvegicus, UniProt P31652); test: [3H]5-HT uptake assay, hippocampal synaptosomes; format: biochemical; conditions: for IC50: Table 4, earlier studies
T3 construct: Rat hippocampus was homogenized in 20 mL cold 0.32 M sucrose; from tissue; host or cells: rat hippocampal synaptosomes
T3 sequence (P31652 whole entry): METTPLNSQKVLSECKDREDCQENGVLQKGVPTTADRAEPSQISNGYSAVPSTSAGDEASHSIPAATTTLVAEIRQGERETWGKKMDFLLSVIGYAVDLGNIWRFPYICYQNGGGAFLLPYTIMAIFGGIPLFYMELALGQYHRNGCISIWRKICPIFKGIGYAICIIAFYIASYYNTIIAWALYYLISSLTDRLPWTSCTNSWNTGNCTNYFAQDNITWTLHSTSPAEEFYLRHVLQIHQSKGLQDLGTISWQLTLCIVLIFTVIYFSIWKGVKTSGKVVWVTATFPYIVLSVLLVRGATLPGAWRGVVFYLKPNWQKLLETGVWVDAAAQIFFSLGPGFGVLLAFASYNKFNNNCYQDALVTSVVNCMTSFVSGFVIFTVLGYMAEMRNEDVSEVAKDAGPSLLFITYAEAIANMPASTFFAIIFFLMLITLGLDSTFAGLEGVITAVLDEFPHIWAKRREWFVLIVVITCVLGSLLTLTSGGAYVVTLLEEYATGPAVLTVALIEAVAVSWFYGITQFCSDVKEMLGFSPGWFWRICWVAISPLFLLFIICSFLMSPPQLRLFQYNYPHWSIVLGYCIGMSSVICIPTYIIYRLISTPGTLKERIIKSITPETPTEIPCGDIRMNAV

α7* nicotinic receptor = target: T4, α7* nicotinic receptor (Rattus norvegicus, UniProt Q05941); test: [3H]Methyllycaconitine ([3H]MLA) binding assay; conditions: Table 1; rat whole brain membranes; read-out: [3H]MLA Binding (Ki) α7*
T4 construct: Whole rat brain (minus cortex, striatum and cerebellum) was homogenized; from tissue; host or cells: rat whole brain membranes (minus cortex, striatum and cerebellum)
T4 sequence (Q05941 23-502): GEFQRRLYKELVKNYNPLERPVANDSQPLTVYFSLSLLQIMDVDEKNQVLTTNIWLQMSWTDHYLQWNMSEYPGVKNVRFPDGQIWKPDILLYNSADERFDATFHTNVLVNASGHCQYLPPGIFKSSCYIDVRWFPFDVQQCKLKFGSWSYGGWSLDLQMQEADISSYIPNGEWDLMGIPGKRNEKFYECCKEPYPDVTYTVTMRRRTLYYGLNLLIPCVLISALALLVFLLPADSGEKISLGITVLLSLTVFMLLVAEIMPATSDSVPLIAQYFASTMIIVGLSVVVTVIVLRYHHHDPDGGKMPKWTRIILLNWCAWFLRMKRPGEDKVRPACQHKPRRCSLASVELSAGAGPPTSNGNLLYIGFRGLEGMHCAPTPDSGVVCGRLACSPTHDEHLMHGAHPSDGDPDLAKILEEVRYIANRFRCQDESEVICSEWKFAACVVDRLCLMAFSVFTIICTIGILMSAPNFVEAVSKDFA

α4β2* nicotinic receptor [4] = target: T1, α4β2* nicotinic receptor; test: High affinity [3H]nicotine binding assay; design: The pellet containing the striatal membranes was resuspended; from tissue; host or cells: rat striatal membranes
α6β2* nicotinic receptor = α6β2* nicotinic receptor (Rattus norvegicus, UniProt P12390+P43143); test: Nicotine-evoked [3H]DA overflow from superfused striatal slices; format: cell-based
α6β2* nicotinic receptor, sequence (P43143 31-493): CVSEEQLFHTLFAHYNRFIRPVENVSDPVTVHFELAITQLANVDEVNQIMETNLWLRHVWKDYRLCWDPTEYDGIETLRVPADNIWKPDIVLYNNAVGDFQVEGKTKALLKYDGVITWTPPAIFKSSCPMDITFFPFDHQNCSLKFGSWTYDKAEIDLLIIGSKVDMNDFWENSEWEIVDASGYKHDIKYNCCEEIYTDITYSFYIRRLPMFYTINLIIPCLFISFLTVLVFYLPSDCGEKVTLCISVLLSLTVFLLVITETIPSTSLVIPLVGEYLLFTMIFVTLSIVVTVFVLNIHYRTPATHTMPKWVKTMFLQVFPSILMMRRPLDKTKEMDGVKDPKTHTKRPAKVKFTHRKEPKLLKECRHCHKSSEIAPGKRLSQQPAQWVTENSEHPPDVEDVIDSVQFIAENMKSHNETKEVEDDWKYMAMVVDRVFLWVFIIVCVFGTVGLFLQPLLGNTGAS
α6β2* nicotinic receptor, sequence (P12390 25-500): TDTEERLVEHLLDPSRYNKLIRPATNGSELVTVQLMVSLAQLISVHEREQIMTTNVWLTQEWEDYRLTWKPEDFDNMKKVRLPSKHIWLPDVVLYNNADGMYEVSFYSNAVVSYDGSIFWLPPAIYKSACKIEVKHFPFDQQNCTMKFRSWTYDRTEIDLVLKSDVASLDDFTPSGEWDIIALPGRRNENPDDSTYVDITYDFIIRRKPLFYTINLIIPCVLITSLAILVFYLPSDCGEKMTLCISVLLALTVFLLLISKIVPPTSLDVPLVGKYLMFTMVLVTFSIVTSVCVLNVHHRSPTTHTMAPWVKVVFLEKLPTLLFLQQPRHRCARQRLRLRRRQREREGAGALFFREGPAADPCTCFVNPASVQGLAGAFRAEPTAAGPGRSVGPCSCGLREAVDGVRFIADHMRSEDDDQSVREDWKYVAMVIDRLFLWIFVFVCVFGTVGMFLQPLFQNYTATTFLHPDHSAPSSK

α3β4* nicotinic receptor = α3β4* nicotinic receptor (Rattus norvegicus, UniProt P04757+P12392); test: Nicotine-evoked [3H]NE overflow from superfused hippocampal slices; format: cell-based; conditions: inhibition of 10 μM S(−)-nicotine
α3β4* nicotinic receptor, sequence (P04757 26-499): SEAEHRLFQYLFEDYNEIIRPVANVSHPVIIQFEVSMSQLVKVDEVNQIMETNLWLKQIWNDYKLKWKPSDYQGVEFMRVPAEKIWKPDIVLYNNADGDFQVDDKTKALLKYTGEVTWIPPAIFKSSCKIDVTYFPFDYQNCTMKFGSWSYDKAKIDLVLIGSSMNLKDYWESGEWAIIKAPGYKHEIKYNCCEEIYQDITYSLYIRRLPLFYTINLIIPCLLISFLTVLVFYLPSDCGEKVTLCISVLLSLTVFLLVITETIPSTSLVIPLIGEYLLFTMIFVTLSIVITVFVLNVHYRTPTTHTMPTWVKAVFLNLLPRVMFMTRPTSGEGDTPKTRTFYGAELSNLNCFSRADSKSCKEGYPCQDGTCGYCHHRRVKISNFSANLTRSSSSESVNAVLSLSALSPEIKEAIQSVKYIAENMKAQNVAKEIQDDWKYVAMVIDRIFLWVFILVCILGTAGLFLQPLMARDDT
α3β4* nicotinic receptor, sequence (P12392 21-495): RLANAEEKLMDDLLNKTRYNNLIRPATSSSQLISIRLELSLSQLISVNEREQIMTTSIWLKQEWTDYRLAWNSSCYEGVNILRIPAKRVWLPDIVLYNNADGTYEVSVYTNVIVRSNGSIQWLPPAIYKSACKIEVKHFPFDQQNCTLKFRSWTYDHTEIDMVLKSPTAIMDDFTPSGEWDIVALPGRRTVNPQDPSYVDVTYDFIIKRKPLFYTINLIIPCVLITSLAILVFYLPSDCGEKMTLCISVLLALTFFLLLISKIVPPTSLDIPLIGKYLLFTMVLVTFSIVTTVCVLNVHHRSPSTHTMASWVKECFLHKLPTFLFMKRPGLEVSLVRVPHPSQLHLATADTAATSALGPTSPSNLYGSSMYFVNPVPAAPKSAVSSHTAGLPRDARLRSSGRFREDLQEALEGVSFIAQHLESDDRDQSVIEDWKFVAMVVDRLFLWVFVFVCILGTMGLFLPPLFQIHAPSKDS

[5] = test system: methamphetamine-evoked endogenous DA release from striatal slices; test: Methamphetamine-evoked endogenous DA overflow from superfused striatal slices; format: cell-based; conditions: read-out: Inhibition of Methamphetamine Evoked DA Overflow IC50 (Mean)
VMAT2 [6] = target: T5, VMAT2 (Rattus norvegicus, UniProt Q01827); test: biochemical
T5 sequence (Q01827 whole entry): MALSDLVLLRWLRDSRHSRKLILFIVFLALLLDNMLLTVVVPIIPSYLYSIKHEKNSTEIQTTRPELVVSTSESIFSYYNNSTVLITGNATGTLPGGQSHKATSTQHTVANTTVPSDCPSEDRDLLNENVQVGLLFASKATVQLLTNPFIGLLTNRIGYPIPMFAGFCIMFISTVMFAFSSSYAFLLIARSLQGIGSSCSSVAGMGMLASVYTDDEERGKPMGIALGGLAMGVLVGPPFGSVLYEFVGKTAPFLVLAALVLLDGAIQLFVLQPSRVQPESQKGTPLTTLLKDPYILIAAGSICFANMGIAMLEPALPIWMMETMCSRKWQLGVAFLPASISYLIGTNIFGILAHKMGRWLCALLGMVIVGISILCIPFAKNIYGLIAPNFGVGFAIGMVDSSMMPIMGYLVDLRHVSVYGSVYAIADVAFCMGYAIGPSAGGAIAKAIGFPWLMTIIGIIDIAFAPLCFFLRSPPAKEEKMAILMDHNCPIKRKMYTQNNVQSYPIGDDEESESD

VMAT2 [7] = target: T5, VMAT2; test: [3H]Dihydrotetrabenazine ([3H]DTBZ) binding assay, synaptic vesicles; conditions: inhibition of [3H]DTBZ binding Ki, text b58
[8] = Table 1, read-out: [3H]DA Uptake (Ki)
[9] = Table 3, earlier study, read-out: Ki [3H]-Dopamine Uptake Assay
[10] = Table 1, read-out: [3H]5-HT Uptake (Ki) SERT
[11] = Table 1, rat striatal membranes, read-out: [3H]Nicotine Binding (Ki) α4β2*
[12] = Table 3, earlier study, read-out: Ki [3H]-Nicotine Binding Assay
[13] = Table 1, inhibition of 10 μM S(−)-nicotine, NI: no inhibition, read-out: Inhibition of Nicotine-Evoked [3H]DA Overflow (IC50) α6β2*
[14] = Table 4, earlier studies, read-out: [3H]Nicotine Binding (Ki) α4β2*
[15] = inhibition of nicotine-evoked [3H]DA overflow IC50

T1 sequence (P09483 31-630): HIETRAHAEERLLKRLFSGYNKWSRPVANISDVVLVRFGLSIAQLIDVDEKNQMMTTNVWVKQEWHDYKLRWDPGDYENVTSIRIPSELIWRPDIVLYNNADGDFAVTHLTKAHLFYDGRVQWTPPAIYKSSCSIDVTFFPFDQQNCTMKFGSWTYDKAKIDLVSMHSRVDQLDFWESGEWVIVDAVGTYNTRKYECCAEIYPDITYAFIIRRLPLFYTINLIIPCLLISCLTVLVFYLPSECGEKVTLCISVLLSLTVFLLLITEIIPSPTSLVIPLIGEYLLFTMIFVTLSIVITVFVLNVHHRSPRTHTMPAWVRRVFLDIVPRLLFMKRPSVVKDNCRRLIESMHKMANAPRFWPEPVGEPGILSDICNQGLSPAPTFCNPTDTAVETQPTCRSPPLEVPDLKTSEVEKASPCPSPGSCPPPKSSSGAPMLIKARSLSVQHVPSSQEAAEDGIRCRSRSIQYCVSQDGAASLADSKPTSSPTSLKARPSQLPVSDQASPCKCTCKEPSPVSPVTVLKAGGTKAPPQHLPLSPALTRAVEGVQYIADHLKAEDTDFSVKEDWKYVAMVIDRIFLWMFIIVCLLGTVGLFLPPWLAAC
T1 sequence (P12390 25-500): as the sequence (P12390 25-500) above

Row | SMILES | IC50 (α4β2* nicotinic receptor [1]) | Ki [2, 8] | Ki [2, 9] | Ki [3, 10] | Ki (α7* nicotinic receptor) | Ki (α4β2* nicotinic receptor [4]; [11]) | Ki (α4β2* nicotinic receptor [4]; [12]) | IC50 (α6β2* nicotinic receptor; [13]) | IC50 (α3β4* nicotinic receptor; Table 1) | IC50 ([5]; Rattus norvegicus) | IC50 (VMAT2 [6]) | IC50 [3] | Ki (α4β2* nicotinic receptor [4]; [14]) | selectivity as inhibitor of α6β2* (and α3β4*) subtypes of nAChR compared to inhibition of SERT function (α6β2* nicotinic receptor) | selectivity for the α6β2* subtype of nAChR relative to interaction with the MTBZ site on VMAT2 (α6β2* nicotinic receptor) | selectivity for α6β2* (and α3β4*) subtypes of nAChR compared to α4β2* or α7* subtypes (α6β2* nicotinic receptor) | IC50 (α6β2* nicotinic receptor; [15]) | Ki (VMAT2 [7]) | also measured
1 | Cc1ccc(S(=O)(=O)O[C@@H](C[C@H]2CCC[C@@H](CC(=O)c3ccccc3)N2C)c2ccccc2)cc1 [Compound 2, 2S,6R,8S-2-[6-(β-Para-toluenesulfonyloxyphenethyl)-1-methyl-2-piperidyl]-acetophenone] | 0.002 µM | 29.1 µM | 39 µM | 1.67 µM | 10.8 µM | 0.011 µM | 0.0041 µM | 1 µM |  |  |  |  |  |  |  |  |  |  | 
2 | CN1[C@@H](CC(=O)c2ccccc2)CCC[C@H]1/C=C/c1ccccc1 [Compound 5, N-methyl-2R-phenacyl-6S-trans-styrylpiperidine] | 0.3 µM | 1.74 µM | 3 µM | 1.86 µM | 34.2 µM | 0.44 µM | 0.13 µM |  |  |  |  |  |  |  |  |  |  |  | inhibition of DAT, potency compared with lobeline ([2]; Table 1 data): 17 fold; inhibition of DAT, potency compared with lobeline ([2]; earlier study (Table 3)): 10 fold
3 | CN1[C@H](/C=C/c2ccccc2)CCC[C@@H]1/C=C/c1ccccc1 [Compound 14, N-methyl-2,6-cis-di-trans-styrylpiperidine] | > 10 µM | 0.58 µM | 0.8 µM | 8.94 µM |  | > 100 µM | > 100 µM |  | 0.01 µM | 0.43 to 1.25 µM | 1.29 µM | 23.2 µM | 11 µM | 770 fold | 43 fold | > 370 fold | 0.0003 µM |  | IC50 (α3β4* nicotinic receptor; Table 4, earlier studies): 0.021 µM; IC50 ([5]; superfused rat striatal slices): 0.7 µM; melting point: 149 to 150 °C; IC50 (α6β2* nicotinic receptor; Inhibition of Nicotine-Evoked [3H]DA Overflow (IC50) α6β2*): 0.03 µM; more potent at inhibiting nicotine-evoked [3H]DA and [3H]NE release compared to Compound 15 (α6β2* nicotinic receptor; rat striatal and hippocampal slices, earlier data): 18 fold
4 | CN1[C@H](/C=C/c2ccccc2)CCC[C@H]1/C=C/c1ccccc1 [Compound 15, N-methyl-2S,6S-trans-di-trans-styrylpiperidine] |  | 0.26 µM |  | 0.38 µM |  | 11.9 µM |  | 1 µM | 0.03 µM | > 100 µM | 5.15 µM | 1.19 µM | 13 µM | 2.2 fold | 9.5 fold | > 24 fold | 0.1 to 1 µM |  | more potent inhibiting the function of SERT than Compound 14 ([3]; earlier data): 19 fold; Ki ([3]; read-out: inhibition of serotonin uptake Ki): 0.01 to 0.38 µM; loss of affinity for the nicotinic receptor compared to lobeline (α4β2* nicotinic receptor [4]; Table 1 data, [3H]nicotine binding): 1000 fold; IC50 (α6β2* nicotinic receptor; Table 4, earlier studies, inhibition of 10 μM S(−)-nicotine, read-out: Inhibition of Nicotine-Evoked [3H]DA Overflow (IC50) α6β2*): 0.54 µM
5 | COc1ccccc1CC[C@H]1CCC[C@@H](CCc2ccccc2OC)N1C [Compound 37, N-methyl-2,6-cis-di-(o-methoxyphenethyl)piperidine] |  |  |  |  | 26 µM | > 100 µM |  |  |  |  |  |  |  |  |  |  |  | 0.43 to 0.68 µM | 
6 | COc1cccc(CC[C@H]2CCC[C@@H](CCc3cccc(OC)c3)N2C)c1 [Compound 39, N-methyl-2,6-cis-di-(m-methoxyphenethyl)piperidine] |  |  |  |  | 25.5 µM | > 100 µM |  |  |  |  |  |  |  |  |  |  |  | 0.43 to 0.68 µM | 

Source: patent US7368443B2, “2,6-disubstituted piperidines and piperazine compounds” (University of Kentucky Research Foundation, priority 1999, dated 2008)
